Experimental data reported in patent publication US20180252704A1, “SCREENING ASSAY TO IDENTIFY IDO1 AND/OR TDO MODULATORS” (Hoffmann-La Roche Inc., priority 2015, published 2018).

Biological target: T1, human TDO (Homo sapiens, UniProt P48775)
T1 construct: expressed in transfected cells; pTet-On plus pTRE2hyg-TDO2
Experiment: cell based fluorescence assay of TDO activity in HepG2-Tet-on-TDO *25 cells (kynurenine detected with Sensor 1), compared with the prior art biochemical TDO assay
Conditions: IC50 cell-based assay versus biochemical assay
Procedure: Assay Methods: Cells were seeded 10,000 cells/well in the Cell Plate and incubated at 37° C. and 5% CO2 in the 95% humidified cell culture incubator. Cells were then induced with 1 μg/ml of doxycyline for 24 h to achieve full expression of IDO or TDO. Non-induced cells were used as 100% inhibition control. After washing 3 times with 60 μl of 1× HBSS (37° C.), cells were equilibrated with 60 μl of 1× HBSS in the cell culture incubator for 30 min. After an-other 3 times washing with 60 μl of 1× HBSS (37° C.), cells were treated with compounds for 10 min before adding the substrate, L-tryptophan, to a final concentration of 80 μM. The assay was carried out for 4 h at 37° C. and 5% CO2 in the cell culture incubator. The reaction was then stopped by transfer of 30 μl/well of supernatant into the Assay Plate. 10 μl/well of 30% (w/v) TCA were added and followed by application of Sensor 1 to a final concentration of 10 μM. After brief centrifugation, the fluorescence was measured at Ex: 546, Em: 586nm with a Paradigm (Molecular devices) plate reader. [table]

T1 sequence (P48775 whole entry): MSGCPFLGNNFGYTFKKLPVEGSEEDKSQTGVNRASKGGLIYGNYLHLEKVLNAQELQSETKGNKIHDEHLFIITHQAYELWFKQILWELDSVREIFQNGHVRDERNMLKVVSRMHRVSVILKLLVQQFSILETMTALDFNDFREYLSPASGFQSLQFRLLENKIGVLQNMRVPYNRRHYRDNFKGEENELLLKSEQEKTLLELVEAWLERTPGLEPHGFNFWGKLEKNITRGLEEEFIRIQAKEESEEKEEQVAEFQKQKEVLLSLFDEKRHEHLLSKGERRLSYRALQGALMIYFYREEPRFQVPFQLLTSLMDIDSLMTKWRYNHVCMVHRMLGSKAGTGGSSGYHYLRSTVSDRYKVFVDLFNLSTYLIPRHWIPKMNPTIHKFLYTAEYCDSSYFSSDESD

**Q.** Which “right-shift of IC50 from biochemical assay to cell-based assay in TDO enzyme activity” value does the source give for NS(=O)(=O)NCCNc1nonc1/C(=N/O)Nc1ccc(F)c(Br)c1 [INCB024360, (Z)-N-(3-bromo-4-fluorophenyl)-N′-hydroxy-4-(2-(sulfamoylamino)ethylamino)-1,2,5-oxadiazole-3-carboximidamide] here?
**A.** The value was “Over 100 fold”.
